The source of these data is PubChem BioAssay (NCI).

Common to all, as to test: NCI-60 cell line screen, 48 h
The test system of assay [1] is A549 NSCLC.
For assay [2], the system named is CCRF-CEM leukemia.
Assay [3] concerns K-562 leukemia.
The subject of assay [4] is KM12 colon.
In assay [5] the test system is LOX IMVI melanoma.
In assay [6] the test system is SF-268 CNS.
Assay [7] has as its system SF-539 CNS.
For assay [8], the system named is SK-MEL-2 melanoma.
Assay [9] concerns SN12C renal.
The subject of assay [10] is SW-620 colon.

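Cultured in 96-well plates, cells were exposed to test compound for 48 hours across five concentrations. TGI marks complete inhibition of growth.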 A value given as a limit tells only on which side of the number the result lay.

Turning to `CC(C)NC(=O)OCCN=c1c2ccccc2ccc2ccccc12`, the TGI is > 100 µM in [1]; 62.5 µM in [2]; > 100 µM in assay [3]; > 100 µM in [4]; > 100 µM in assay [5]; > 100 µM in [6]. The TGI is > 100 µM in assay [7], 73.4 µM in assay [8], > 100 µM in assay [9] and > 100 µM in assay [10].
Consider `C=CCOc1ccc(C2C(C(=O)OCC)C(=O)CC(C)(O)C2C(=O)OCC)cc1OC` (stereo not given), for which the TGI in assay [1], in assay [2], in [3], in [4], in assay [5] and in [6] was > 100 µM in each case. Also, the TGI in assay [7], in [8], in [9] and in [10] was > 100 µM throughout.
As for `CC(C)(C)OC(=O)NCCCNC1(c2cc3ccccc3s2)CCCCC1`, the TGI in assay [1] is 27.2 µM; in [2], 40.3 µM; in assay [3], 26.3 µM; in assay [4], 33.1 µM; in assay [5], 35.2 µM; in [6] it was 33.8 µM. Moreover, the TGI worked out at 34.2 µM in assay [7], 37.6 µM in [8], 30.5 µM in assay [9] and 40.9 µM in assay [10].
As to `CCOC(=O)c1ccc(C)c(N=NN(C)C)c1`, the TGI in assay [1], in assay [2], in assay [3], in assay [4], in assay [5] and in assay [6] was > 100 µM in each case. Besides, the TGI in [7], in [8], in [9] and in assay [10] was > 100 µM each time.
Turning to `Nc1ccc(S(=O)(=O)Nc2nccs2)cc1`, the TGI in assay [1], in assay [2], in assay [3], in [4], in assay [5] and in assay [6] was > 100 µM each time. Besides, the TGI in assay [7], in assay [8], in [9] and in assay [10] was > 100 µM in each case.
In the case of `CC12CCC(O)CC1CCC1C2CCC2(C)C(C(=O)CC(O)C(F)(F)F)CCC12` (stereo not given), the TGI was > 100 µM in [1]; > 93.1 µM in [2]; 17.4 µM in assay [3]; > 100 µM in assay [4]; > 100 µM in [5]; > 100 µM in assay [6]. Also, the TGI in [7] is > 92.9 µM; in assay [8], > 100 µM; in assay [9] it was > 100 µM; in assay [10], > 100 µM.
In the case of `O=[N+]([O-])/C(C(Cl)=C(Cl)Cl)=C(\N1CCCCC1)n1cncn1`, the TGI in assay [1] was 39.8 µM; in assay [2] it was > 100 µM; in assay [3], > 100 µM; in assay [4], 40.8 µM; in [5], 42.1 µM; in assay [6], 26.9 µM. For the same molecule, the TGI worked out at 31.4 µM in [7], 43.8 µM in [8], 33.4 µM in assay [9] and 36.9 µM in assay [10].
As to `COc1ccc2c(cnc3c4cc(OC)c(OC)cc4ccc23)c1`, the TGI in assay [1], in assay [2], in assay [3], in assay [4], in assay [5] and in [6] was > 100 µM in each case. In addition, the TGI in assay [7], in [8], in assay [9] and in [10] was > 100 µM each time.
With `CC1=C(CO)C(=O)O[C@@H]([C@@H](CO)[C@H]2CCC3C4C[C@@H](O)[C@@]5(O)CC=CC(=O)[C@]5(C)C4CC[C@@]32C)C1` (stereo not given in full), the TGI in [1], in assay [2], in assay [3], in assay [4], in assay [5] and in assay [6] was > 100 µM each time. Also, the TGI in assay [7], in assay [8], in assay [9] and in assay [10] was > 100 µM throughout.
In the case of `O=C(O)/C=c1/c2ccccc2n2nc3ccccc3c12`, the TGI was > 100 µM in assay [1]; 99.6 µM in assay [2]; > 100 µM in assay [3]; 80.7 µM in [4]; 78 µM in [5]; > 100 µM in [6]. For the same molecule, the TGI in assay [7] is 73.5 µM; in [8], > 100 µM; in [9], 88.8 µM; in assay [10] it was > 100 µM.
In the case of `C#C[C@]1(O)CC[C@H]2[C@@H]3CCC4=C/C(=N/OC(=O)c5cccc6c(=O)c7ccccc7[nH]c56)CC[C@@H]4[C@H]3CC[C@@]21C`, the TGI was > 100 µM in assay [1]; 39.1 µM in [2]; 59 µM in [3]; > 100 µM in [4]; > 100 µM in [5]; > 100 µM in assay [6]. Besides, the TGI in assay [7], in assay [8], in [9] and in assay [10] was > 100 µM in each case.
Consider `CC1CCCC(CC(=O)O)(CC(=O)O)C1` (stereo not given), for which the TGI in assay [1], in [2], in assay [3], in assay [4], in assay [5] and in assay [6] was > 100 µM throughout. In addition, the TGI in assay [7], in assay [8], in assay [9] and in assay [10] was > 100 µM in each case.
As to `O=c1c(C(c2ccc(Cl)cc2)c2c(O)c3ccccc3n(-c3ccccc3)c2=O)c(O)c2ccccc2n1-c1ccccc1`, the TGI in [1], in assay [2], in [3], in assay [4], in assay [5] and in assay [6] was > 100 µM in each case. The TGI in [7] was > 100 µM; in assay [8], 86.1 µM; in assay [9], > 100 µM; in [10] it was > 100 µM.
`CC(=O)O[C@H]1CC[C@@]2(C)C(=CC[C@H]3[C@@H]4C[C@H](N5CCOCC5)[C@H](OC(C)=O)[C@@]4(C)CC[C@@H]32)C1`: the TGI in assay [1], in assay [2], in assay [3], in assay [4], in [5] and in assay [6] was > 100 µM each time. Moreover, the TGI in assay [7], in assay [8], in assay [9] and in [10] was > 100 µM throughout.
Turning to `O=C(O)c1ccc(OCc2nc3cc(C(F)(F)F)ccc3nc2-c2ccccc2)cc1`, the TGI in [1], in assay [2], in assay [3], in [4], in [5] and in [6] was > 100 µM in each case. The TGI in assay [7] is 76.8 µM; in assay [8] it was > 100 µM; in [9] it was > 100 µM; in assay [10] it was > 100 µM.
For the molecule `C[N+]12CCCCC1C(CN1C(=O)Cc3c4ccccc4c(c4ccccc34)CC1=O)CCC2` (stereo not given), the TGI in assay [1], in [2], in assay [3], in assay [4], in [5] and in [6] was > 100 µM in each case. Also, the TGI in [7], in [8], in assay [9] and in assay [10] was > 100 µM in each case.
On to `COC(=O)C1=C(C)NC(C)=C(C(=O)OC)C1c1nc2sccn2c1[N+](=O)[O-]`, for which the TGI in assay [1], in [2], in [3], in assay [4], in assay [5] and in [6] was > 100 µM throughout. In addition, the TGI in assay [7], in assay [8], in assay [9] and in assay [10] was > 100 µM in each case.
`NNC(=O)CSc1nc2ccccc2c(=O)n1N`: the TGI in assay [1], in assay [2], in assay [3], in assay [4], in assay [5] and in [6] was > 100 µM in each case. The TGI in assay [7] is > 100 µM; in [8], 66.9 µM; in assay [9], > 100 µM; in assay [10] it was > 100 µM.
